Data taken from patent publication US20240274226A1, “MOLECULAR EVALUATION METHODS” (UNIVERSITY COLLEGE DUBLIN, priority 2021, published 2024).
Where “and” joins values, the source holds several entries; their conditions need not be identical. Equal entries are not always repeated.

Key:
SH-SY5Y-TrkA [1] = assay: cSTAR analysis of RPPA perturbation data (STV dot product P, DPD output S), TrkA cells; assay type: cell-based, human; conditions: ligand NGF, 45 minutes, calculated from RPPA data
Text: (§1) Thus, we use this dimensionality reduced STV for estimating the network effects and biological outcomes of experimental perturbations. For each perturbation we determine a perturbation vector that connects the centroids of the point clouds that have been obtained before and after the perturbation. This vector changes the cell phenotype when it pushes the centroid of the original point cloud across the plane that separates different cell states, stabilizes a cell state when moving the centroid away from the separation plane, or has no effect when it is (nearly) parallel to the separation plane.
(§2) These outcomes can be quantified by determining the dot product (P) of the perturbation vector and the dimensionality reduced STV.
(§3) For a correct interpretation of perturbation data using the STV, we have to exclude the analytes that composed the modules of our core signaling network. Accordingly, the dimensionality of the molecular dataspace where the STV and perturbation vectors are calculated is reduced from 115 to 70, due to 45 analytes from Table S1A, related to the five proteins flagged in Table S3, being allocated to core network components, leaving the remaining 70 analytes to defined the reduced dimensionality dataspace.
(§4) Let A with the radius-vector {right arrow over (x)}A be the centroid of the point cloud Ai, corresponding to the unperturbed state 1. Let Apert with the radius-vector {right arrow over (x)}Apert be the centroid of the point cloud (Ai^pert), corresponding to the perturbed state 1. Then the perturbation vector is defined as,
(§5) The projection P of the perturbation vector {right arrow over (P)} on the STV ({right arrow over (s)}) is obtained as a dot product of these two vectors,
(§6) In the molecular dataspace, we consider the STV as a vector {right arrow over (s)} of unit length directed from a centroid of a differentiation TrkA point cloud to a centroid of a proliferation TrkB point cloud. We now define the output of the DPD module as the S value,
(§7) In this definition, the direction of the vector {right arrow over (n)}, which is orthogonal to the separation hyperplane, […]. Then, the DPD value (S) is positive for proliferation TrkB points and negative for differentiation TrkA points.
(§8) Using the STV ({right arrow over (s)}), a perturbation vector ({right arrow over (P)}) and the unit length vector ({right arrow over (n)}) orthogonal to the separation hyperplane, we can calculate how the DPD value changes following each inhibitor perturbation. The DPD values, determined for the centroids of unperturbed (A) and perturbed (Apert) states, S and Spert, respectively, are the following (see Eq. 9),
(§9) In order to reconstruct the posterior network, we used the drug perturbations described in Table 1, measuring 10 and 45 minute timepoints in TrkA and TrkB cells stimulated with NGF or BDNF, respectively.

SH-SY5Y-TrkB [2] = assay: cSTAR analysis of RPPA perturbation data (STV dot product P, DPD output S), TrkB cells; assay type: cell-based, human; conditions: for Change in the DPD output ΔS / DPD output S: SH-SY5Y-TrkB, ligand BDNF, 45 minutes, calculated from RPPA data
Text: as §1, §2
TrkB cells were treated with the p90RSK inhibitor BI-D1870. Data points were acquired corresponding to 45 min 100 ng/ml GF stimulation, and these were projected into the first 3 principal components in order to calculate the point cloud centroids. For clarity, only the centroids are shown in FIG. 7, corresponding to: TrkA 45 minute NGF, TrkB 45 minute BDNF before perturbation, and the perturbed centroid TrkB RSKi 45 minute BDNF.
as §3, §4, §5, §6, §7, §8, §9

SH-SY5Y-TrkB [3] = assay: Differentiation of TrkB cells, live cell images at 72 hours; assay type: cell-based, human; conditions: for Experimentally measured percentage of differentiated cells: SH-SY5Y-TrkB, ligand BDNF; for Experiment (biological outcome): SY5Y-TrkB ± BDNF
Method: FIG. 45 is a live cell image of TrkB cells stimulated with BDNF taken at 72 hours. FIG. 46 is a live cell image of BDNF-stimulated TrkB cells treated with 0.2 μM Trametinib taken at 72 hours. FIG. 47 is a live cell image of BDNF-stimulated TrkB cells treated with 2.5 μM Gefitinib taken at 72 hours. […] FIG. 49 is an additional experiment, being a live cell image of BDNF-stimulated TrkB cells treated with a combination of 2.5 μM Gefitinib and 0.05 μM Trametinib taken at 72 hours.

SH-SY5Y-TrkA [4] = assay: Differentiation of TrkA cells, live cell images at 72 hours; conditions: for Experimentally measured percentage of differentiated cells: SH-SY5Y-TrkA, ligand NGF; for Experiment (biological outcome): SY5Y-TrkA ± NGF
Method: SH-SY5Y cells stably expressing TrkA or TrkB receptors were stimulated with 100 ng/ml NGF or BDNF, respectively. Differentiation and proliferation were assessed 72 hours after growth factor treatment.
In FIGS. 35A-F, the live cell images are accompanied by bar plots showing the percentage of differentiated cells. The percentages were obtained by examining three images for each set of conditions, and counting the total number of cells and the number of differentiated cells.
FIG. 52 is a bar plot showing the percentage of differentiated cells for different treatments, measured by counting cells in images and calculating the ratio of differentiated cells to total cells.

TrkA cells = assay: RPPA phosphoproteomics (raw fluorescent intensity) in TrkA cells stimulated with ligand and treated with inhibitors; assay type: cell-based, human
Text: (§10) Experiments used a custom made RPPA with 115 validated antibodies listed in Table S1A below to interrogate the activities of signaling pathways involved in TrkA/B signaling (Schramm et al., 2005), including MAPK (RAS-ERK, JNK, p38), PI3 kinase (AKT, mTORC1/2), JAK-STAT, PLCγ-PKC, TGFβ-SMAD, Wnt, cyclic-AMP, cell cycle (CDK1, Cyclins, Rb, p53, p21^WAF), apoptosis (BAX, BCL2, BCLx, Caspase 3), transcription factor (MYC, NFκB, JUN), and tyrosine kinase (SRC, EGFR, PDGFR, IGFR) pathways. In addition to the 115 antibodies, three controls are also included, Mouse 1, 2 and 3.
(§11) For each antibody, RPPA phosphoproteomics data was collected, measured as raw fluorescent intensity values in TrkA and TrkB cells stimulated with a ligand and treated with different inhibitors. A sample of the data is reproduced in Table S1B below, showing the measured fluorescent intensity values for a small sample of antibodies and a small sample of treatment and stimulation conditions. The full data set, including replicated experiments, contains 118 rows (one per antibody) and 144 columns (each containing 118 measurements and relating to an experimental set of treatment and stimulation conditions, which include replicated experiments).
(§12) In terms of the computational approach to processing the acquired data, each analyte level was first normalized on the GAPDH level, and then on the value of the same analyte in the absence of inhibitors and ligand stimulation to obtain fold-changes.
(§13) FIGS. 25-30 show the simulated time courses with the experimental data points (dots with error bars) imposed on the model predictions (curves) for a number of inhibitors: S6K inhibitor (1 μM) FIG. 25A-F; TRK inhibitor (5 μM) FIG. 26A-F; MEK inhibitor (0.5 μM) FIG. 27 A-F; AKT inhibitor (1 μM) FIG. 28A-F; JNK inhibitor (1 μM) FIG. 29A-F; and RSK inhibitor (1 μM) FIG. 30A-F. The TrkA and TrkB cells were treated with the respective inhibitor, and stimulated with 100 ng/ml NGF and BDNF, respectively. Dashed lines are the time courses in the absence of inhibitor. Error bars represent SEM and are calculated using 3 biological replicates.

phospho-Trk [5] = assay: Phospho-Trk activity by Western blotting, TrkA cells; assay type: cell-based, human; conditions: single replicates
Method: (§14) These antibodies detect phosphorylation sites that change protein activities or protein abundances. We measured pathway activities in untreated cells and cells treated with NGF (TrkA ligand) or BDNF (TrkB ligand) for 10 or 45 minutes. After normalization we calculated the fold changes in protein phosphorylation levels or abundances producing a data point for each protein.

phospho-Trk [6] = assay: Phospho-Trk activity by Western blotting, TrkB cells; assay type: cell-based, human; conditions: single replicates
Method: as §14

TrkB cells = assay: RPPA phosphoproteomics (raw fluorescent intensity) in TrkB cells stimulated with ligand and treated with inhibitors; assay type: cell-based, human; conditions: No GF stimulation
Text: as §10, §11, §12, §13

Molecule	Change in the DPD output ΔS (SH-SY5Y-TrkA [1])	DPD output S (SH-SY5Y-TrkA [1])	Change in the DPD output ΔS (SH-SY5Y-TrkB [2])	DPD output S (SH-SY5Y-TrkB [2])	Experimentally measured percentage of differentiated cells (SH-SY5Y-TrkB [3]; 72 hours)	Experimentally measured percentage of differentiated cells (SH-SY5Y-TrkA [4]; 72 hours)	Experiment (biological outcome) (SH-SY5Y-TrkA [4])	other results
CC[n+]1c(/C=C/N(C)c2ccccc2)n(-c2ccccc2)c2ccc(-c3nc4ccccc4s3)cc21.[I-] [AKT inhibitor, AKT inhibitor IV]	−1.3 ± 0.6	−3.6 ± 0.5	−1.5 ± 1.0	4.3 ± 0.8	34.3% ± 0.8%	62% ± 3%	–	–
COc1cc2ncnc(Nc3ccc(F)c(Cl)c3)c2cc1OCCCN1CCOCC1 [Gefitinib]	–	–	–	–	–	–	–	differentiation of TrkB cells (live cell images) (SH-SY5Y-TrkB [3]; BDNF-stimulated, 72 hours, combination 1.25 μM Gefitinib + 0.1 μM Trametinib or 2.5 μM + 0.05 μM, alone 2.5 μM Gefitinib, 0.2 μM Trametinib): not with either inhibitor applied separately
Cc1cc(NC(=O)c2cccc(NC(=O)/C=C/CN(C)C)c2)ccc1Nc1nccc(-c2cccnc2)n1 [JNK inhibitor, JNK-IN-8]	−0.07 ± 0.75	−2.4 ± 0.7	0.23 ± 0.82	5.95 ± 0.56	25% ± 4%	45% ± 5%	No effect	Experiment (biological outcome) (SH-SY5Y-TrkB [3]): No effect
CC(=O)Nc1cccc(-n2c(=O)n(C3CC3)c(=O)c3c(Nc4ccc(I)cc4F)n(C)c(=O)c(C)c32)c1 [MEK inhibitor, Trametinib]	−0.7 ± 0.4	−3.0 ± 0.3	0.35 ± 0.72	6.1 ± 0.4	20% ± 1%	48% ± 3%	No effect	Bad P Ser112 raw fluorescent intensity (RPPA) (TrkA cells; 45 min NGF stimulation): 0.2853; Bad P Ser136 raw fluorescent intensity (RPPA) (TrkA cells; 45 min NGF stimulation): 0.07024; Bak raw fluorescent intensity (RPPA) (TrkA cells; 45 min NGF stimulation): 0.0709; CrkL P Tyr207 raw fluorescent intensity (RPPA) (TrkA cells; 45 min NGF stimulation): 0.1174; HSP27 (HSPB1) P Ser78 raw fluorescent intensity (RPPA) (TrkA cells; 45 min NGF stimulation): 0.04349; JAK1 raw fluorescent intensity (RPPA) (TrkA cells; 45 min NGF stimulation): 0.0516
Oc1c2ccccc2c2c3c(cccc13)N=N2 [Trk inhibitor, SP600125]	−2.53 ± 0.35	−4.84 ± 0.16	−9.6 ± 0.6	−3.84 ± 0.03	55% ± 4%	64.4% ± 2.5%	–	phospho-Trk (phospho-Trk [5]; 10 min ligand stimulation): 0.8871 and 0.6065; phospho-Trk (phospho-Trk [5]; 45 min ligand stimulation): 0.724; phospho-Trk (phospho-Trk [6]; 10 min ligand stimulation): 3.716 and 1.408; phospho-Trk (phospho-Trk [6]; 45 min ligand stimulation): 3.539
Cn1cc(-c2ccc(F)c(C(F)(F)F)c2)nc1C1CCN(c2ncnc3[nH]ncc23)CC1 [p70S6K inhibitor, LY2584702]	−1.5 ± 0.4	−3.8 ± 0.3	−7.8 ± 0.6	−2.10 ± 0.05	45% ± 3%	41% ± 5%	–	Bad P Ser112 raw fluorescent intensity (RPPA) (TrkA cells; 10 min NGF stimulation): 0.1181; Bad P Ser136 raw fluorescent intensity (RPPA) (TrkA cells; 10 min NGF stimulation): 0.109; Bak raw fluorescent intensity (RPPA) (TrkA cells; 10 min NGF stimulation): 0.211; CrkL P Tyr207 raw fluorescent intensity (RPPA) (TrkA cells; 10 min NGF stimulation): 0.2814; HSP27 (HSPB1) P Ser78 raw fluorescent intensity (RPPA) (TrkA cells; 10 min NGF stimulation): 0.2939; JAK1 raw fluorescent intensity (RPPA) (TrkA cells; 10 min NGF stimulation): 0.1005
CC(C)CCN1c2nc(Nc3cc(F)c(O)c(F)c3)ncc2N(C)C(=O)C1C (stereo not shown) [p90RSK inhibitor, BI-D1870]	1.8 ± 0.3	−0.54 ± 0.13	−1.7 ± 0.6	4.0 ± 0.2	29% ± 4%	37.0% ± 2.4%	decreasing differentiation	Bad P Ser112 raw fluorescent intensity (RPPA) (TrkB cells): 0.103; Bad P Ser136 raw fluorescent intensity (RPPA) (TrkB cells): 0.07225; Bak raw fluorescent intensity (RPPA) (TrkB cells): 0.1888; CrkL P Tyr207 raw fluorescent intensity (RPPA) (TrkB cells): 0.2852; HSP27 (HSPB1) P Ser78 raw fluorescent intensity (RPPA) (TrkB cells): 0.3221; JAK1 raw fluorescent intensity (RPPA) (TrkB cells): 0.1064; Perturbation vector component collinear with the STV (SH-SY5Y-TrkB [2]; TrkB cells, 45 min 100 ng/ml GF stimulation): moves the proliferation state towards differentiation; Experiment (biological outcome) (SH-SY5Y-TrkB [3]): weakly increasing differentiation
NGF: TrkA ligand, growth factor	–	–	–	–	–	–	–	cell fate after growth factor treatment (SH-SY5Y-TrkA [4]; TrkA cells, 100 ng/ml, 72 hours): differentiation
BDNF: TrkB ligand, growth factor (protein, UniProt P23560 19-247, looked up) Neurotrophic factor BDNF …: APMKEANIRGQGGLAYPGVRTHGTLESVNGPKAGSRGLTSLADTFEHVIEELLDEDQKVRPNEENNKDADLYTSRVMLSSQVPLEPPLLFLLEEYKNYLDAANMSMRVRRHSDPARRGELSVCDSISEWVTAADKKTAVDMSGGTVTVLEKVPVSKGQLKQYFYETKCNPMGYTKEGCRGIDKRHWNSQCRTTQSYVRALTMDSKKRIGWRFIRIDTSCVCTLTIKRGR	–	–	–	–	–	–	–	cell fate after growth factor treatment (SH-SY5Y-TrkB [3]; TrkB cells, 100 ng/ml, 72 hours): proliferation
